Laboratory results as given in patent US5519115A, “Reverse antimicrobial peptides” (priority 1993, dated 1996).

Tests used:
P3 Fusarium = assay: Antifungal bioassay (MCIC, spore germination); assay type: cell-based, P3 Fusarium (field isolate); conditions: 10^7 spores/test; mean after 24 hours of treatment, at least three replicates
Protocol: Fungi were grown on an appropriate medium, in this case a potato dextrose agar plate, for several weeks. At the end of that period, the plate was flooded with about 5 mL of sterile distilled water to harvest spores. The spore concentration was determined by use of a hemocytometer and the spore suspension was stored in a sterile tube at 4° C. until it was needed. Then 82 microliters of potato dextrose broth and 3 microliters of spore suspension (ranging from 10^5 to 10^7 spores total) were added to 12 wells in a 96 well microtiter plate for each AMPPP to be tested, with 1-4 replicate sets of 12 wells prepared for each AMPPP within a single experiment. […] The amount of spore germination and fungal growth was recorded as a quantitative measurement at each observation time using a system of pluses and minuses: [-] meant no germination having occurred, [+] meant swollen spores with an extended germ tube, [++] meant the beginnings of mycelial growth with the overall appearance of a loose lattice, and [+++] meant a dense mycelial growth with the overall appearance of a thick opaque meshwork. The MCIC value for each AMPPP tested was then recorded, where the MCIC value is defined as the lowest peptide concentration at which no spore germination occurred (rating=[-]). […]

Cercospora sp. = assay: Antifungal bioassay (MCIC, spore germination); assay type: cell-based; conditions: 10^6 spores/test; mean after 24 hours of treatment
Protocol: (§1) Fungi were grown on an appropriate medium, in this case a potato dextrose agar plate, for several weeks. At the end of that period, the plate was flooded with about 5 mL of sterile distilled water to harvest spores. The spore concentration was determined by use of a hemocytometer and the spore suspension was stored in a sterile tube at 4° C. until it was needed. Then 82 microliters of potato dextrose broth and 3 microliters of spore suspension (ranging from 10^5 to 10^7 spores total) were added to 12 wells in a 96 well microtiter plate for each AMPPP to be tested, with 1-4 replicate sets of 12 wells prepared for each AMPPP within a single experiment. In several instances, more than one spore concentration was used in order to determine the efficacy of certain AMPPPs as a function of the number of target spores. Stock solutions of each AMPPP were prepared at a concentration of 1 mg/mL and 0-15 microliters of each peptide stock solution were added to a single well in the microtiter plate followed by a sufficient volume of water to bring the total well volume to 100 microliters. […] Typical peptide volumes assayed were 0, 1, 2, 3, 4, 5, 6, 7, 8, 9, 10, and 15 microliters, which corresponds to a final peptide concentration in the range of 0-150 micrograms/mL. The microtiter plates were sealed with parafilm and incubated at room temperature for 48 hours. The fungal growth was observed after 24 and 48 hours by microscope using a 4× and/or a 10× objective lens. The amount of spore germination and fungal growth was recorded as a quantitative measurement at each observation time using a system of pluses and minuses: [-] meant no germination having occurred, [+] meant swollen spores with an extended germ tube, [++] meant the beginnings of mycelial growth with the overall appearance of a loose lattice, and [+++] meant a dense mycelial growth with the overall appearance of a thick opaque meshwork. The MCIC value for each AMPPP tested was then recorded, where the MCIC value is defined as the lowest peptide concentration at which no spore germination occurred (rating=[-]). […]

[1] = tested on: Helminthosporium carbonum; assay: Antifungal bioassay (MCIC, spore germination); assay type: cell-based; conditions: 10^6 spores/test; mean after 24 hours of treatment
Protocol: as §1

Trichoderma reesei = assay: Antifungal bioassay (MCIC, spore germination); assay type: cell-based; conditions: 10^6 spores/test; mean after 24 hours of treatment
Protocol: as §1

isolated chloroplasts = assay: Oxygen evolution bioassay, phytotoxicity (isolated chloroplasts); assay type: cell-based, Spinach (Spinacia oleracea L. var. Melody)
Protocol: The following procedure for the preparation of chloroplasts to use in an oxygen electrode is similar to that of Gupta et al., "Development and Use of Chlorotetracycline Fluorescence as a Measurement Assay of Chloroplast Envelope-Bound Mg^2+, "Plant Physiol. 89, (1989) 753-761. Spinach (Spinacia oleracea L. var. `Melody`) was grown in 1:1 peat/vermiculite potting mix in a growth chamber with a 10 hour light period. The chamber temperature was maintained at 21° C. (day) and 16° C. (night) during the growth period. All plants were used for chloroplast isolation after 6-8 weeks of growth.
In order to obtain an enriched chloroplast fraction, about 12 g of deribbed spinach leaves were thoroughly washed and surface dried. The leaves were then cut into small pieces, each about 1/2 inch square, and were placed in a small blender jar containing 50 mL of chilled homogenization medium (0.33M sorbitol, 50 mM Hepes-NaOH, pH 6.8, 2mM Na2 EDTA, 1 mM MnCl2, 1 mM MgCl2). The tissue was blended twice for three second intervals on high speed in a blender. The resulting homogenate was filtered through four layers of cheesecloth and two layers of miracloth (Behring Diagnostics, La Jolla, Calif.) into two chilled 30 mL glass centrifuge tubes. The filtered solution was centrifuged for 1.0 minute at 750 g (2,200 RPM) in a JS 13.1 swinging bucket rotor in a Beckman J2-21M centrifuge (Beckman Instruments, Inc., Somerset, N.J.). The supernatant was then decanted and the pellet was gently resuspended by swirling at 0° C. About 15 mL of homogenization medium was added to each tube of chloroplasts before the chloroplasts were layered onto a 40% Percoll gradient (6 mL Percoll, 9 mL homogenization medium, and 0.03 g bovine serum albumin) in a 30 mL glass centrifuge tube. These tubes were centrifuged for 4.0 minutes at 2500 g (4000 RPM) in a JS 13.1 swinging bucket rotor in a Beckman J2-21M centrifuge. The supernatant was removed and the resulting pellet was resuspended in a small amount of homogenization medium (about 500 microliters).
Plastid concentration was generally expressed on a chlorophyll basis. Chlorophyll was determined by the method of Arnon "Copper Enzymes in Isolated Chloroplasts, Polyphenol Oxidase in Beta Vulgaris," Plant Physiol. 24, (1949) 1-15. About 50 microliters of chloroplast stock suspension was added to 10 mL of 80% acetone and this solution was incubated 5.0 minutes in the dark and then centrifuged for 5.0 minutes at 500 g (1630 RPM) in a Beckman GP centrifuge. The absorbance of the acetone-chloroplast solution was monitored at 645 nm, at 663 nm and at 730 nm. The chlorophyll concentration was then calculated as 10× [(absorbance at 645 nm×20.2)+(absorbance at 663 nm×8.02)--background at 730 nm]. This gave the amount of chlorophyll in micrograms for the original 50 microliters of chloroplasts. The concentration of chloroplasts was then adjusted with homogenization medium so that 50 microliters of suspension contained 26 micrograms of chlorophyll. These chloroplasts were only active for 11/2 to 2 hours and were therefore used immediately.
An oxygen electrode (Hansatech Instruments Ltd., Kings Lynn, Norfolk, England) was used to measure oxygen evolution from isolated chloroplasts. For a detailed discussion of the method see, D. Walker, "The Use of the Oxygen Electrode and Fluorescence Probes in Simple Measurements of Photosynthesis," supra. A saturated KCl solution was placed in the electrode well and a one-inch square of rolling paper or lens paper was placed in to the electrode well so that it soaked up KCl and formed an ionic bridge. A one-inch square of teflon membrane was then prepared, being careful not to touch its surface, and was placed over the soaked paper. Using the membrane applicator, an O ring was placed over the head of the electrode, thereby securing paper and membrane across the electrode. The CB-1D control box was turned on and the system was allowed to warm up approximately one hour before calibration. […]

## Met-Mag 1 dimer (head-to-tail) [Peptide No. 9]
P3 Fusarium
  MCIC Values With: P3 Fusarium: 15+/-6 micrograms per mL
Cercospora sp.
  MCIC Values With: Cercospora sp.: 25+/-10 micrograms per mL
[1]
  MCIC Values With: Helminthosporium carbonum: 63+/-29 micrograms per mL
Trichoderma reesei
  MCIC Values With: Trichoderma reesei: 24+/-12 micrograms per mL
Isolated chloroplasts
  inhibition of oxygen evolution: 100%
